Here are results for 28 compounds from US8946203B2, “Benzodioxane inhibitors of leukotriene production” (Boehringer Ingelheim International GmbH, priority 2012, dated 2015).

The target in one experiment is T1, human LTA4 hydrolase (Homo sapiens, UniProt P09960).
T1 sequence (P09960 1-611): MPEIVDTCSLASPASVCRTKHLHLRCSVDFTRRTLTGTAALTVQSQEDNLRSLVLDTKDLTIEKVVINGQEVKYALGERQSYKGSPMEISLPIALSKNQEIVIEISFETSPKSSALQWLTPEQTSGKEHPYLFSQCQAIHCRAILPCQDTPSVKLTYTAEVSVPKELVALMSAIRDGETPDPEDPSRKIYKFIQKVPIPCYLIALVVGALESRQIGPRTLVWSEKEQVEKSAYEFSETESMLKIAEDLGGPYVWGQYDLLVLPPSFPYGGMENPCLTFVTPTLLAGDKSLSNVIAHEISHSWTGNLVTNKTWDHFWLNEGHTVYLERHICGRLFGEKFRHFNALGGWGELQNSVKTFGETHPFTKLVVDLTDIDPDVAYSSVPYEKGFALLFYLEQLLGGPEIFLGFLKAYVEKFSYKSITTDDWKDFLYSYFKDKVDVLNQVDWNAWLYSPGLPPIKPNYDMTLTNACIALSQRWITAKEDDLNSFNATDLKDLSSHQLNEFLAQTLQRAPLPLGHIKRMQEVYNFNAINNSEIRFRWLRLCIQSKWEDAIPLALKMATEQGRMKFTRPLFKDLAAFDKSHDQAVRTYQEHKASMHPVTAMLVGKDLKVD
In words: LTA4H Enzyme assay (cleavage of Arg-AMC, fluorescence). The class given is biochemical. An outline of the steps: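 Peptidase activity of human LTA4H (1 nM final) on Arg-AMC (50 μM final), with compound, 1 h at room temperature. Buffer: 50 mM Tris-HCl pH 7.5, 100 mM KCl, 0.5% BSA.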

For experiment [1], the system named is synthesis of LTB4 in human whole blood. In words: human whole blood (HWB) assay, LTB4 production inhibition after calcimycin stimulation. The class given is cell-based. As to conditions: heparinized human whole blood, calcimycin 20 μM, plasma LTB4 by HTRF. As to the method: The compounds of the invention are additionally tested in a human whole blood (HWB) assay to determine their ability to inhibit the synthesis of LTB4 in a cellular system. Compounds are combined with heparinized human whole blood and incubated for 15 minutes at 37° C. Calcimycin (20 μM final, prepared in phosphate-buffered saline, pH 7.4) is then added and the mixture is incubated for another 30 minutes at 37° C. The samples are centrifuged for 5 min at low speed (1500×g) and the plasma layer is removed. Plasma LTB4 concentrations are then measured using an antibody-based homogenous time-resolved fluorescence method (CisBio, Bedford, Mass.). In general, the preferred potency range (IC50) of compounds in the HWB assay is between 10 nM to 10 μM, the more preferred potency range is 10 nM to 1 μM, and the most preferred potency range is 10 nM to 100 nM.
In general terms: In TR-FRET formats the signal depends on donor and acceptor labels being close together.

Setting [2] is: LTA4H Enzyme 1 nM, Arg-AMC substrate 50 μM, room temperature 1 h, fluorescence, read-out: IC50 values of LTA4H Enzyme assay.

Molecules are shown by their SMILES. Like-named read-outs stand apart in the source and are kept apart here.

One may read the IC50 as the concentration that inhibits the measured activity by half. As for `O=C1NCCCC12CCN(Cc1ccc([C@H]3COc4ccccc4O3)cc1)CC2` [Example 116, 9-{4-[(2S)-2,3-dihydro-1,4-benzodioxin-2-yl]benzyl}-2,9-diazaspiro[5.5]undecan-1-one], the half-inhibitory concentration (IC50) on human LTA4 hydrolase (setting [2]) is 0.82 nM; in experiment [1], 310 nM.

With `CC(=O)N1CCCC12CCN(Cc1ccc([C@H]3COc4ccccc4O3)cc1)C2` (stereo partly drawn) [Example 118, 1-(7-{4-[(2S)-2,3-dihydro-1,4-benzodioxin-2-yl]benzyl}-1,7-diazaspiro[4.4]non-1-yl)ethanone], the figures for the IC50 (at human LTA4 hydrolase (setting [2]); in experiment [1]) were 0.45 nM and 256 nM, respectively.

Turning to `CN1CCC2(CCN(Cc3ccc([C@H]4COc5ccccc5O4)cc3)CC2)C1=O` [Example 121, 8-{4-[(2S)-2,3-dihydro-1,4-benzodioxin-2-yl]benzyl}-2-methyl-2,8-diazaspiro[4.5]decan-1-one], the IC50 at human LTA4 hydrolase (setting [2]) is 0.37 nM; in experiment [1] it was 159 nM.

As for `NC(=O)CN1CCCC12CCN(Cc1ccc([C@H]3COc4ccccc4O3)cc1)C2` (stereo partly drawn) [Example 123, 2-(7-{4-[(2S)-2,3-dihydro-1,4-benzodioxin-2-yl]benzyl}-1,7-diazaspiro[4.4]non-1-yl)acetamide], the IC50 on human LTA4 hydrolase (setting [2]) came to 0.73 nM; in experiment [1] it was 312 nM.

As to `O=C1NCCC12CCN(Cc1ccc([C@H]3COc4cccnc4O3)cc1)CC2` [Example 125, 8-[(S)-4-(2,3-Dihydro-[1,4]dioxino[2,3-b]pyridin-3-yl)-benzyl]-2,8-diaza-spiro[4.5]decan-1-one], the IC50 worked out at 0.16 nM at human LTA4 hydrolase (setting [2]) and 39 nM in experiment [1].

Take `c1cnc2c(c1)OC[C@H](c1ccc(CN3CCCC3)cc1)O2` [Example 126, (3S)-3-[4-(pyrrolidin-1-ylmethyl)phenyl]-2,3-dihydro[1,4]dioxino[2,3-b]pyridine]: the figures for the IC50 (at human LTA4 hydrolase (setting [2]); in experiment [1]) were 0.18 nM and 32 nM, respectively.

Regarding `O=C(O)CCC1CCN(Cc2ccc([C@H]3COc4ccccc4O3)cc2)CC1` [Example 134, 3-(1-{4-[(2S)-2,3-dihydro-1,4-benzodioxin-2-yl]benzyl}piperidin-4-yl)propionic acid], the IC50 on human LTA4 hydrolase (setting [2]) amounted to 0.47 nM; in experiment [1] it was 95 nM.

On to `CC1CCN(Cc2ccc([C@H]3COc4cccnc4O3)cc2)CC1` [Example 137, (3S)-3-{4-[(4-methylpiperidin-1-yl)methyl]phenyl}-2,3-dihydro[1,4]dioxino[2,3-b]pyridine], for which the IC50 on human LTA4 hydrolase (setting [2]) amounted to 0.26 nM; in experiment [1], 28 nM.

As to `CN(CCc1ccccn1)Cc1ccc([C@H]2COc3cccnc3O2)cc1` [Example 138, N-{4-[(3S)-2,3-dihydro[1,4]dioxino[2,3-b]pyridin-3-yl]benzyl}-N-methyl-2-(pyridin-2-yl)ethanamine], the 50% inhibitory concentration (IC50) was determined as 0.18 nM on human LTA4 hydrolase (setting [2]) and 76 nM in experiment [1].

Take `c1cnc2c(c1)OC[C@H](c1ccc(CN3CCCCCC3)cc1)O2` [Example 139, (3S)-3-[4-(azepan-1-ylmethyl)phenyl]-2,3-dihydro[1,4]dioxino[2,3-b]pyridine]: the figures for the concentration for half-maximal inhibition (IC50) (on human LTA4 hydrolase (setting [2]); in experiment [1]) were 0.1 nM and 13 nM, respectively.

`CCN(C)Cc1ccc([C@H]2COc3cccnc3O2)cc1` [Example 140, N-{4-[(3S)-2,3-dihydro[1,4]dioxino[2,3-b]pyridin-3-yl]benzyl}-N-methylethanamine]: the IC50 at human LTA4 hydrolase (setting [2]) came out at 0.38 nM; in experiment [1], 33 nM.

For the compound `CCN(CC)Cc1ccc([C@H]2COc3cccnc3O2)cc1` [Example 141, N-{4-[(3S)-2,3-dihydro[1,4]dioxino[2,3-b]pyridin-3-yl]benzyl}-N-ethylethanamine], the IC50 on human LTA4 hydrolase (setting [2]) is 0.26 nM; in experiment [1], 33 nM.

For `CN(Cc1ccc([C@H]2COc3cccnc3O2)cc1)C1CCCC1` [Example 142, N-{4-[(3S)-2,3-dihydro[1,4]dioxino[2,3-b]pyridin-3-yl]benzyl}-N-methylcyclopentanamine], the figures for the IC50 (at human LTA4 hydrolase (setting [2]); in experiment [1]) were 0.17 nM and 24 nM, respectively.

`c1cnc2c(c1)OC[C@H](c1ccc(CN3[C@H]4CC[C@@H]3CC4)cc1)O2` [Example 145, (3S)-3-{4-[(1s,4s)-7-azabicyclo[2.2.1]hept-7-ylmethyl]phenyl}-2,3-dihydro[1,4]dioxino[2,3-b]pyridine]: the results for the IC50 (on human LTA4 hydrolase; in experiment [1]) were 0.09 nM and 28 nM, respectively.

`FC1CCN(Cc2ccc([C@H]3COc4cccnc4O3)cc2)CC1` [Example 155, (3S)-3-{4-[(4-fluoropiperidin-1-yl)methyl]phenyl}-2,3-dihydro[1,4]dioxino[2,3-b]pyridine]: the results for the IC50 (at human LTA4 hydrolase (setting [2]); in experiment [1]) were 0.28 nM and 95 nM, respectively.

As to `c1cnc2c(c1)OC[C@H](c1ccc(CN3CCn4cnnc4C3)cc1)O2` [Example 156, (3S)-3-[4-(5,6-dihydro[1,2,4]triazolo[4,3-a]pyrazin-7(8H)-ylmethyl)phenyl]-2,3-dihydro[1,4]dioxino[2,3-b]pyridine], the results for the IC50 (at human LTA4 hydrolase (setting [2]); in experiment [1]) were 0.91 nM and 159 nM, respectively.

On to `COC1CCCN(Cc2ccc([C@H]3COc4cccnc4O3)cc2)C1` (stereo partly drawn) [Example 158, (3S)-3-{4-[(3-methoxypiperidin-1-yl)methyl]phenyl}-2,3-dihydro[1,4]dioxino[2,3-b]pyridine], for which the figures for the 50% inhibitory concentration (IC50) (at human LTA4 hydrolase (setting [2]); in experiment [1]) were 0.13 nM and 28 nM, respectively.

For `CC(=O)NC1CCN(Cc2ccc([C@H]3COc4cccnc4O3)cc2)CC1` [Example 160, N-(1-{4-[(3S)-2,3-dihydro[1,4]dioxino[2,3-b]pyridin-3-yl]benzyl}piperidin-4-yl)acetamide], the IC50 at human LTA4 hydrolase (setting [2]) was 0.18 nM; in experiment [1] it was 28 nM.

Regarding `NC(=O)N1CCN(Cc2ccc([C@H]3COc4cccnc4O3)cc2)CC1` [Example 164, 4-{4-[(3S)-2,3-dihydro[1,4]dioxino[2,3-b]pyridin-3-yl]benzyl}piperazine-1-carboxamide], the IC50 came out at 0.84 nM on human LTA4 hydrolase (setting [2]) and 100 nM in experiment [1].

Turning to `COC1CCN(Cc2ccc([C@H]3COc4cccnc4O3)cc2)C1` (stereo partly drawn) [Example 168, (3S)-3-{4-[(3-methoxypyrrolidin-1-yl)methyl]phenyl}-2,3-dihydro[1,4]dioxino[2,3-b]pyridine], the figures for the IC50 (at human LTA4 hydrolase (setting [2]); in experiment [1]) were 0.31 nM and 39 nM, respectively.

In the case of `c1cnc2c(c1)OC[C@H](c1ccc(CNC3CCC3)cc1)O2` [Example 173, N-{4-[(3S)-2,3-dihydro[1,4]dioxino[2,3-b]pyridin-3-yl]benzyl}cyclobutanamine], the IC50 at human LTA4 hydrolase (setting [2]) worked out at 0.73 nM; in experiment [1], 73 nM.

For `CS(=O)(=O)N1CCC(NCc2ccc([C@H]3COc4ccccc4O3)cc2)CC1` [Example 174, N-{4-[(2S)-2,3-dihydro-1,4-benzodioxin-2-yl]benzyl}-1-(methylsulfonyl)piperidin-4-amine], the values for the IC50 (on human LTA4 hydrolase (setting [2]); in experiment [1]) were 0.6 nM and 268 nM, respectively.

With `NC(=O)NC1CCN(Cc2ccc([C@H]3COc4ccccc4O3)cc2)CC1` [Example 175, 1-(1-{4-[(2S)-2,3-dihydro-1,4-benzodioxin-2-yl]benzyl}piperidin-4-yl)urea], the IC50 was found to be 0.22 nM at human LTA4 hydrolase (setting [2]) and 73 nM in experiment [1].

Consider `CC(=O)NC1CCN(Cc2ccc([C@H]3COc4ccccc4O3)cc2)CC1` [Example 178, N-(1-{4-[(2S)-2,3-dihydro-1,4-benzodioxin-2-yl]benzyl}piperidin-4-yl)acetamide], for which the IC50 on human LTA4 hydrolase (setting [2]) worked out at 0.35 nM; in experiment [1], 160 nM.

As for `O=C(O)C[C@@H]1CCCN(Cc2ccc([C@H]3COc4ccccc4O3)cc2)C1` [Example 183, [(3S)-1-{4-[(2S)-2,3-dihydro-1,4-benzodioxin-2-yl]benzyl}piperidin-3-yl]acetic acid], the IC50 at human LTA4 hydrolase (setting [2]) is 0.48 nM; in experiment [1] it was 151 nM.

For `CC(=O)N1CCN(Cc2ccc([C@H]3COc4cccnc4O3)cc2)CC1` [Example 185, 1-(4-{4-[(3S)-2,3-dihydro[1,4]dioxin[2,3-b]pyridin-3-yl]benzyl}piperazin-1-yl)ethanone], the IC50 on human LTA4 hydrolase (setting [2]) turned out to be 0.59 nM; in experiment [1], 92 nM.

For the compound `OC1CCN(Cc2ccc([C@H]3COc4cccnc4O3)cc2)CC1` [Example 186, 1-{4-[(3S)-2,3-dihydro[1,4]dioxino[2,3-b]pyridin-3-yl]benzyl}piperidin-4-ol], the IC50 on human LTA4 hydrolase (setting [2]) turned out to be 0.24 nM; in experiment [1], 36 nM.

`NC(=O)NC1CCN(Cc2ccc([C@H]3COc4cccnc4O3)cc2)CC1` [Example 187, 1-(1-{4-[(3S)-2,3-dihydro[1,4]dioxino[2,3-b]pyridin-3-yl]benzyl}piperidin-4-yl)urea]: the IC50 came out at 0.07 nM at human LTA4 hydrolase (setting [2]) and 177 nM in experiment [1].
